We go through 28 compounds from patent US11020395B2, “Cycloalkyl substituted triazole compounds as agonists of the APJ receptor” (AMGEN INC., priority 2016, dated 2021).

Chain of human APJ receptor (P35414 whole entry): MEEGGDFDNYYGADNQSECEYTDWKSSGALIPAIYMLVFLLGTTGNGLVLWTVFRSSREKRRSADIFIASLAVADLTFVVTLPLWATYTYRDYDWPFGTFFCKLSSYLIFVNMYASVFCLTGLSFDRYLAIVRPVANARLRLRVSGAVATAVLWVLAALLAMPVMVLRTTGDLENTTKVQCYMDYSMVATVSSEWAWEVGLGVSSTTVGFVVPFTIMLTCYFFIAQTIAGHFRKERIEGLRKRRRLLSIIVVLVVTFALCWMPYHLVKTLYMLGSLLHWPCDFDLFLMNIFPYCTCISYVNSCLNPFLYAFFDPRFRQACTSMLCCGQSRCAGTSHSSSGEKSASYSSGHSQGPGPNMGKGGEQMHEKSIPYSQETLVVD

The target in the assay is human APJ receptor (Homo sapiens (Human), UniProt P35414). The experiment in a line: [35S]GTPγS binding assay on membranes from CHO cells stably expressing human APJ receptor. The note with it: [35S]GTPγS SPA, read-out: Activity hAPJ SPA EC50 IP. Type of assay: biochemical. The method in brief:
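Agonist-stimulated [35S]GTPγS binding measured on membranes of a stable human APJ CHO line, 90 min at room temperature, with GDP, MgCl2 and NaCl levels optimized beforehand. Means of independent runs fitted by non-linear regression to give EC50.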
In the case of `COc1cccc(OC)c1-n1c(NS(=O)(=O)[C@@H](C)[C@H](OC)c2ncc(Cl)cn2)nnc1C1CCC1` [Example 93.0, (1R,2S)-1-(5-chloropyrimidin-2-yl)-N-(5-cyclobutyl-4-(2,6-dimethoxyphenyl)-4H-1,2,4-triazol-3-yl)-1-methoxypropane-2-sulfonamide], the EC50 turned out to be 0.91 nM.
In the case of `CO[C@H](c1ncc(Cl)cn1)[C@H](C)S(=O)(=O)Nc1nnc(C2CCC2)n1-c1c(F)cccc1F` [Example 94.0, (1R,2S)-1-(5-chloropyrimidin-2-yl)-N-(5-cyclobutyl-4-(2,6-difluorophenyl)-4H-1,24-triazol-3-yl)-1-methoxypropane-2-sulfonamide] it was 0.72 nM.
In the case of `COCC(COC)n1c(NS(=O)(=O)[C@@H](C)[C@H](OC)c2ncc(Cl)cn2)nnc1C1CCC1` [Example 95.0, (1R,2S)-1-(5-chloropyrimidin-2-yl)-N-(5-cyclobutyl-4-(1,3-dimethoxypropan-2-yl)-4H-1,2,4-triazol-3-yl)-1-methoxypropane-2-sulfonamide] it was 43 nM; in that of `COCC1(n2c(NS(=O)(=O)[C@@H](C)[C@H](OC)c3ncc(Cl)cn3)nnc2C2CCC2)CC1` [Example 96.0], 30 nM; in that of `CO[C@H](c1ncc(Cl)cn1)[C@H](C)S(=O)(=O)Nc1nnc(C2CCC2)n1C1CCOCC1` [Example 97.0, (1R,2S)-1-(5-chloropyrimidin-2-yl)-N-(5-cyclobutyl-4-(tetrahydro-2H-pyran-4-yl)-4H-1,2,4-triazol-3-yl)-1-methoxypropane-2-sulfonamide], 370 nM.
As for `C=C1CC(c2nnc(NS(=O)(=O)[C@@H](C)[C@H](OC)c3ncc(Cl)cn3)n2-c2c(OC)ncnc2OC)C1` [Example 118.0], the EC50 came out at 1 nM.
The same measure for `COc1cccc(OC)c1-n1c(NS(=O)(=O)[C@@H](C)[C@H](OC)c2ncc(Cl)cn2)nnc1C1CC(C)(C)C1` [Example 119.0]: 0.79 nM.
The same measure for `COc1ncnc(OC)c1-n1c(NS(=O)(=O)[C@@H](C)[C@H](OC)c2ncc(Cl)cn2)nnc1C1CC(C)(C)C1` [Example 120.0]: 3.1 nM; for `COc1cccc(OC)c1-n1c(NS(=O)(=O)[C@@H](C)[C@H](C)c2ncc(Cl)cn2)nnc1C1(c2ccccn2)CC1` [Example 125.0]: 400 nM; for `COc1cccc(OC)c1-n1c(NS(=O)(=O)[C@@H](C)[C@H](C)c2ncc(C)cn2)nnc1C1(c2ccccn2)CC1` [Example 126.0]: 4200 nM.
In the case of `CO[C@H](c1ncc(Cl)cn1)[C@H](C)S(=O)(=O)Nc1nnc(C2CCC2)n1C(C)C` [Example 128.0] it was 330 nM; in that of `COc1cccc(OC)c1-n1c(NS(=O)(=O)[C@@H](C)[C@H](OC)c2cnc(C)cn2)nnc1C1CCC1` [Example 138.0], 27 nM; in that of `COc1cccc(OC)c1-n1c(NS(=O)(=O)[C@@H](C)[C@H](C)c2cnc(C)cn2)nnc1C1CCC1` [Example 139.0], 29 nM.
For the compound `COc1cccc(OC)c1-n1c(NS(=O)(=O)[C@@H](C)[C@@H](OC(C)C)c2cnc(C)cn2)nnc1C1CCC1` [Example 140.0], the EC50 came out at 31 nM.
In the case of `COc1cccc(OC)c1-n1c(NS(=O)(=O)[C@@H](C)[C@H](OC)c2ncc(C)cn2)nnc1C1CCC1` [Example 141.0], the EC50 was determined as 33 nM.
In the case of `COc1cccc(OC)c1-n1c(NS(=O)(=O)[C@@H](C)[C@@H](OC(C)C)c2ncc(C)cn2)nnc1C1CCC1` [Example 142.0] it was 5.1 nM.
As to `COc1cccc(OC)c1-n1c(NS(=O)(=O)[C@@H](C)[C@H](C)c2ncc(Cl)cn2)nnc1C1CCC1` [Example 143.0], the EC50 came to 4.1 nM.
As to `COc1cccc(OC)c1-n1c(NS(=O)(=O)[C@@H](C)[C@H](OC)c2ncc(Cl)cn2)nnc1C1CC(F)(F)C1` [Example 147.0], the EC50 came out at 6.4 nM.
With `COc1cccc(OC)c1-n1c(NS(=O)(=O)[C@@H](C)[C@H](OC)c2ncc(Cl)cn2)nnc1[C@H]1C[C@H](C)C1` [Example 148.0, (1R,2S)-1-(5-chloropyrimidin-2-yl)-N-(4-(2,6-dimethoxyphenyl)-5-((1r,3S)-3-methylcyclobutyl)-4H-1,2,4-triazol-3-yl)-1-methoxypropane-2-sulfonamide and (1R,2S)-1-(5-chloropyrimidin-2-yl)-N-(4-(2,6-dimethoxyphenyl)-5-((1r,3R)-3-methylcyclobutyl)-4H-1,2,4-triazol-3-yl)-1-methoxypropane-2-sulfonamide], the EC50 is 1.1 nM.
The same measure for `COc1ncnc(OC)c1-n1c(NS(=O)(=O)[C@@H](C)[C@H](OC)c2ncc(Cl)cn2)nnc1C1CC2(CC2)C1` [Example 183.0, (1R,2S)-1-(5-chloro-2-pyrimidinyl)-N-(4-(4,6-dimethoxy-5-pyrimidinyl)-5-(spiro[2.3]hexan-5-yl)-4H-1,2,4-triazol-3-yl)-1-methoxy-2-propanesulfonamide]: 1.4 nM; for `COc1ncnc(OC)c1-n1c(NS(=O)(=O)[C@@H](C)[C@H](OC)c2ncc(Cl)cn2)nnc1C1CC2(CCC2)C1` [Example 184.0, (1R,2S)-1-(5-chloro-2-pyrimidinyl)-N-(4-(4,6-dimethoxy-5-pyrimidinyl)-5-(spiro[3.3]heptan-2-yl)-4H-1,2,4-triazol-3-yl)-1-methoxy-2-propanesulfonamide]: 1.1 nM.
On to `COc1ncnc(OC)c1-n1c(NS(=O)(=O)[C@@H](C)[C@H](OC)c2ncc(Cl)cn2)nnc1[C@H]1C[C@H](C)C1` [Example 185.0, (1R,2S)-1-(5-chloro-2-pyrimidinyl)-N-(4-(4,6-dimethoxy-5-pyrimidinyl)-5-(trans-3-methylcyclobutyl)-4H-1,2,4-triazol-3-yl)-1-methoxy-2-propanesulfonamide], for which the EC50 is 2.7 nM.
In the case of `COc1ncnc(OC)c1-n1c(NS(=O)(=O)[C@@H](C)[C@H](OC)c2ncc(Cl)cn2)nnc1[C@H]1C[C@@H](C)C1` [Example 186.0, (1R,2S)-1-(5-chloro-2-pyrimidinyl)-N-(4-(4,6-dimethoxy-5-pyrimidinyl)-5-(cis-3-methylcyclobutyl)-4H-1,2,4-triazol-3-yl)-1-methoxy-2-propanesulfonamide] it was 0.89 nM; in that of `COc1ncnc(OC)c1-n1c(NS(=O)(=O)[C@@H](C)[C@H](OC)c2ncc(C)cn2)nnc1C1CC2(CC2)C1` [Example 200.0], 4.6 nM.
In the case of `COc1ncnc(OC)c1-n1c(NS(=O)(=O)[C@@H](C)[C@H](OC)c2ncc(C)cn2)nnc1C1CC2(CC2)C1` [Example 201.0] it was 11 nM.
As to `COc1ncnc(OC)c1-n1c(NS(=O)(=O)[C@@H](C)[C@H](C)c2ncc(C)cn2)nnc1C1CC2(CC2)C1` [Example 202.0], the EC50 amounted to 4.2 nM.
In the case of `COc1ncnc(OC)c1-n1c(NS(=O)(=O)[C@@H](C)[C@H](OC)c2ncc(Cl)cn2)nnc1C1CC(Cl)(Cl)C1` [Example 203.0, (1R,2S)-1-(5-chloropyrimidin-2-yl)-N-(5-(3,3-dichlorocyclobutyl)-4-(4,6-dimethoxypyrimidin-5-yl)-4H-1,2,4-triazol-3-yl)-1-methoxypropane-2-sulfonamide] it was 10 nM.
On to `COc1cccc(OC)c1-n1c(NS(=O)(=O)[C@@H](C)[C@H](OCC(F)F)c2ncc(C)cn2)nnc1C1CCC1` [Example 209.0], for which the EC50 came out at 18 nM.
